Assay results published in patent publication US20260258064A1 (SIRONAX LTD., priority 2023, published 2026).
pIC50: −log10 of the molar value.

Target: T1, SARM1 (50-724) (Homo sapiens, UniProt Q6SZW1)
T1 construct: Purified SARM1 (50-724) with a final concentration of 2 nM was pre-incubated with a test compound
T1 sequence (Q6SZW1 50-724): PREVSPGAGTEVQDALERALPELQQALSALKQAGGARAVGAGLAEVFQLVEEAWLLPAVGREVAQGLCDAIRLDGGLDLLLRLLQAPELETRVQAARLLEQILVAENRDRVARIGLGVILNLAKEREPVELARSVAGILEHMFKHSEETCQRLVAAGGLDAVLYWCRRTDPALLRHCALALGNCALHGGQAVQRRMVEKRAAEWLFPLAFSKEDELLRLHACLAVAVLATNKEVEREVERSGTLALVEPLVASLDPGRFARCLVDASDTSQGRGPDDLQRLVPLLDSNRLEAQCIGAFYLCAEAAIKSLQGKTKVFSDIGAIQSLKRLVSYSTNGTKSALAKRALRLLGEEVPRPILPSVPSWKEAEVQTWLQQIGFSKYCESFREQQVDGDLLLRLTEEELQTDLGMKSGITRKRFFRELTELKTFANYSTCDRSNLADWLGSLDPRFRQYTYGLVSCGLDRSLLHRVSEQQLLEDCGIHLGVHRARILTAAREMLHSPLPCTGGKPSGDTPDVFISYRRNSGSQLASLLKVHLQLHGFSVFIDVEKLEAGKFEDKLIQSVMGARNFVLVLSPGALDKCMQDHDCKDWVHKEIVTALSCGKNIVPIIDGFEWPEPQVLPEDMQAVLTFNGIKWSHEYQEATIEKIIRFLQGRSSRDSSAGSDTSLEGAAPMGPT
Assay: SARM1 (50-724) enzymatic assay (LC-MS/MS)
Format: biochemical
Details: Purified SARM1 (50-724) 2 nM, NMN as activator, NAD+ as substrate, 1 h at room temperature, read-out: IC50 (SARM1 inhibitory activity)
Outline: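 Reaction buffer was Dulbecco's PBS. Compound and 2 nM human SARM1 (50-724) were pre-incubated 15 min at room temperature, then […] NAD^+ and 200 µM NMN activator were added for 1 h at room temperature. Acetonitrile (70%) stop, LC-MS/MS read-out, IC50 values.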

FC(F)(F)c1ccc2[nH]c(-c3nncn3-c3cnncc3C3CC3)nc2c1 [Compound 220, 2-(4-(5-cyclopropylpyridazin-4-yl)-4H-1,2,4-triazol-3-yl)-5-(trifluoromethyl)-1H-benzo[d]imidazole]
pIC50: 6.30 to 7.00

FC(F)(F)Oc1cnc(C2CC2)cc1-n1cnnc1-c1nc2cc(C(F)(F)F)ccc2[nH]1 [Compound 221, 2-(4-(2-cyclopropyl-5-(trifluoromethoxy)pyridin-4-yl)-4H-1,2,4-triazol-3-yl)-5-(trifluoromethyl)-1H-benzo[d]imidazole]
pIC50: ≥ 7.00

Cn1cc(OC(F)(F)F)c(-n2cnnc2-c2nc3cc(C(F)(F)F)cc(F)c3[nH]2)cc1=O [Compound 222, 4-(3-(7-fluoro-5-(trifluoromethyl)-1H-benzo[d]imidazol-2-yl)-4H-1,2,4-triazol-4-yl)-1-methyl-5-(trifluoromethoxy)pyridin-2(1H)-one]
pIC50: ≥ 7.00

FC(F)(F)Oc1cnccc1-n1cnnc1-c1nc2cc(C34CC(C3)C4)ccc2[nH]1 [Compound 223, 5-(bicyclo[1.1.1]pentan-1-yl)-2-(4-(3-(trifluoromethoxy)pyridin-4-yl)-4H-1,2,4-triazol-3-yl)-1H-benzo[d]imidazole]
pIC50: ≥ 7.00

CC1(c2ccc3[nH]c(-c4nncn4-c4ccncc4OC(F)(F)F)nc3c2)CC1 [Compound 224, 5-(1-methylcyclopropyl)-2-(4-(3-(trifluoromethoxy)pyridin-4-yl)-4H-1,2,4-triazol-3-yl)-1H-benzo[d]imidazole]
pIC50: ≥ 7.00

FC(F)(F)c1ccc2[nH]c(-c3nncn3-c3cnccc3C(F)(F)F)nc2c1 [Compound 225, 5-(Trifluoromethyl)-2-(4-(4-(trifluoromethyl)pyridin-3-yl)-4H-1,2,4-triazol-3-yl)-1H-benzo[d]imidazole]
pIC50: ≥ 7.00

C#Cc1cc(-n2cnnc2-c2nc3cc(C(F)(F)F)ccc3[nH]2)c(OC(F)(F)F)cn1 [Compound 226, 2-(4-(2-ethynyl-5-(trifluoromethoxy)pyridin-4-yl)-4H-1,2,4-triazol-3-yl)-5-(trifluoromethyl)-1H-benzo[d]imidazole]
pIC50: ≥ 7.00

FC(F)(F)Oc1cnccc1-n1cnnc1-c1nc2cc(C(F)(F)F)cc(Cl)c2[nH]1 [Compound 227, 7-chloro-2-(4-(3-(trifluoromethoxy)pyridin-4-yl)-4H-1,2,4-triazol-3-yl)-5-(trifluoromethyl)-1H-benzo[d]imidazole]
pIC50: ≥ 7.00

FC(F)(F)c1ccc2[nH]c(-c3nncn3-c3ccncc3OC3CC3)nc2c1 [Compound 228]
pIC50: < 6.00

N#CC1(c2ccc3[nH]c(-c4nncn4-c4cccc(F)c4Cl)nc3c2)CC12CC2 (stereo not drawn) [Compound 229, 1-(2-(4-(2-chloro-3-fluorophenyl)-4H-1,2,4-triazol-3-yl)-1H-benzo[d]imidazol-5-yl)spiro[2.2]pentane-1-carbonitrile]
pIC50: ≥ 7.00

OCCOc1ccc(OC(F)(F)F)c(-n2cnnc2-c2nc3cc(C(F)(F)F)ccc3[nH]2)c1 [Compound 230, 2-(4-(trifluoromethoxy)-3-(3-(5-(trifluoromethyl)-1H-benzo[d]imidazol-2-yl)-4H-1,2,4-triazol-4-yl)phenoxy)ethan-1-ol]
pIC50: ≥ 7.00

CCc1ccncc1-n1cnnc1-c1nc2cc(C(F)(F)F)ccc2[nH]1 [Compound 231, 2-(4-(4-ethylpyridin-3-yl)-4H-1,2,4-triazol-3-yl)-5-(trifluoromethyl)-1H-benzo[d]imidazole]
pIC50: ≥ 7.00

FC(F)(F)Oc1cn2ccnc2cc1-n1cnnc1-c1nc2cc(C(F)(F)F)ccc2[nH]1 [Compound 232, 2-(4-(6-(trifluoromethoxy)imidazo[1,2-a]pyridin-7-yl)-4H-1,2,4-triazol-3-yl)-5-(trifluoromethyl)-1H-benzo[d]imidazole]
pIC50: ≥ 7.00

Fc1cc(C(F)(F)F)cc2nc(-c3nncn3-c3cnccc3C(F)(F)F)[nH]c12 [Compound 233, 7-Fluoro-5-(trifluoromethyl)-2-(4-(4-(trifluoromethyl)pyridin-3-yl)-4H-1,2,4-triazol-3-yl)-1H-benzo[d]imidazole]
pIC50: ≥ 7.00

FC(F)Oc1ncccc1-n1cnnc1-c1nc2cc(C(F)(F)F)ccc2[nH]1 [Compound 235, 2-(4-(2-(difluoromethoxy)pyridin-3-yl)-4H-1,2,4-triazol-3-yl)-5-(trifluoromethyl)-1H-benzo[d]imidazole]
pIC50: ≥ 7.00

FC(F)(F)c1ccc2[nH]c(-c3nncn3-c3cc4nccn4cc3C(F)(F)F)nc2c1 [Compound 236, 5-(trifluoromethyl)-2-(4-(6-(trifluoromethyl)imidazo[1,2-a]pyridin-7-yl)-4H-1,2,4-triazol-3-yl)-1H-benzo[d]imidazole]
pIC50: ≥ 7.00

FC(F)C1(c2ccc3[nH]c(-c4nncn4-c4ccncc4OC(F)(F)F)nc3c2)CC1 [Compound 237]
pIC50: ≥ 7.00

CCC(c1ccc2[nH]c(-c3nncn3-c3ccncc3OC(F)(F)F)nc2c1)C(F)F (stereo not drawn) [Compound 238, 5-(1,1-difluorobutan-2-yl)-2-(4-(3-(trifluoromethoxy)pyridin-4-yl)-4H-1,2,4-triazol-3-yl)-1H-benzo[d]imidazole]
pIC50: ≥ 7.00

Oc1ccc(C(F)(F)F)c(-n2cnnc2-c2nc3cc(C(F)(F)F)ccc3[nH]2)c1 [Compound 240, 4-(trifluoromethyl)-3-(3-(5-(trifluoromethyl)-1H-benzo[d]imidazol-2-yl)-4H-1,2,4-triazol-4-yl)phenol]
pIC50: ≥ 7.00

OCCOc1cc(-n2cnnc2-c2nc3cc(C(F)(F)F)ccc3[nH]2)c(OC(F)(F)F)cn1 [Compound 241, 2-((5-(trifluoromethoxy)-4-(3-(5-(trifluoromethyl)-1H-benzo[d]imidazol-2-yl)-4H-1,2,4-triazol-4-yl)pyridin-2-yl)oxy)ethan-1-ol]
pIC50: ≥ 7.00

Cn1cc(OC(F)(F)F)c(-n2cnnc2-c2nc3cc(C(F)(F)F)ccc3[nH]2)cc1=S [Compound 242, 1-methyl-5-(trifluoromethoxy)-4-(3-(5-(trifluoromethyl)-1H-benzo[d]imidazol-2-yl)-4H-1,2,4-triazol-4-yl)pyridine-2(1H)-thione]
pIC50: ≥ 7.00

CP(C)(=O)c1ccc(Cl)c(-n2cnnc2-c2nc3cc(C(F)(F)F)ccc3[nH]2)c1 [Compound 244, (4-chloro-3-(3-(5-(trifluoromethyl)-1H-benzo[d]imidazol-2-yl)-4H-1,2,4-triazol-4-yl)phenyl)dimethylphosphine oxide]
pIC50: < 6.00

CN(C)c1ccncc1-n1cnnc1-c1nc2cc(C(F)(F)F)ccc2[nH]1 [Compound 245, N,N-dimethyl-3-(3-(5-(trifluoromethyl)-1H-benzo[d]imidazol-2-yl)-4H-1,2,4-triazol-4-yl)pyridin-4-amine]
pIC50: ≥ 7.00

Cc1nccc(C(F)(F)F)c1-n1cnnc1-c1nc2cc(C(F)(F)F)ccc2[nH]1 [Compound 246, 2-(4-(2-methyl-4-(trifluoromethyl)pyridin-3-yl)-4H-1,2,4-triazol-3-yl)-5-(trifluoromethyl)-1H-benzo[d]imidazole]
pIC50: ≥ 7.00

FC(F)(F)Cc1ccccc1-n1cnnc1-c1nc2cc(C(F)(F)F)ccc2[nH]1 [Compound 248, 2-(4-(2-(2,2,2-trifluoroethyl)phenyl)-4H-1,2,4-triazol-3-yl)-5-(trifluoromethyl)-1H-benzo[d]imidazole]
pIC50: < 6.00

NC(=O)COc1ccc(OC(F)(F)F)c(-n2cnnc2-c2nc3cc(C(F)(F)F)ccc3[nH]2)c1 [Compound 249, 2-(4-(trifluoromethoxy)-3-(3-(5-(trifluoromethyl)-1H-benzo[d]imidazol-2-yl)-4H-1,2,4-triazol-4-yl)phenoxy)acetamide]
pIC50: ≥ 7.00

OCCOc1ccc(OC(F)(F)F)c(-n2cnnc2-c2nc3cc(C(F)(F)F)ccc3[nH]2)n1 [Compound 250]
pIC50: ≥ 7.00

OCC(F)(F)COc1ccc(OC(F)(F)F)c(-n2cnnc2-c2nc3cc(C(F)(F)F)ccc3[nH]2)n1 [Compound 251, 2,2-difluoro-3-((5-(trifluoromethoxy)-6-(3-(5-(trifluoromethyl)-1H-benzo[d]imidazol-2-yl)-4H-1,2,4-triazol-4-yl)pyridin-2-yl)oxy)propan-1-ol]
pIC50: ≥ 7.00

FC(F)c1ccncc1-n1cnnc1-c1nc2cc(C(F)(F)F)ccc2[nH]1 [Compound 252, 2-(4-(4-(difluoromethyl)pyridin-3-yl)-4H-1,2,4-triazol-3-yl)-5-(trifluoromethyl)-1H-benzo[d]imidazole]
pIC50: ≥ 7.00

OCc1cc(-n2cnnc2-c2nc3cc(C(F)(F)F)ccc3[nH]2)c(OC(F)(F)F)cn1 [Compound 253, (5-(trifluoromethoxy)-4-(3-(5-(trifluoromethyl)-1H-benzo[d]imidazol-2-yl)-4H-1,2,4-triazol-4-yl)pyridin-2-yl)methanol]
pIC50: ≥ 7.00
